Common to all, as to type: cell-based
The target of experiment [1] is T1, human TLR7 (Homo sapiens, UniProt Q9NYK1).
T1 construct: host or cells: HEK-Blue cells
T1 sequence (Q9NYK1 27-1049): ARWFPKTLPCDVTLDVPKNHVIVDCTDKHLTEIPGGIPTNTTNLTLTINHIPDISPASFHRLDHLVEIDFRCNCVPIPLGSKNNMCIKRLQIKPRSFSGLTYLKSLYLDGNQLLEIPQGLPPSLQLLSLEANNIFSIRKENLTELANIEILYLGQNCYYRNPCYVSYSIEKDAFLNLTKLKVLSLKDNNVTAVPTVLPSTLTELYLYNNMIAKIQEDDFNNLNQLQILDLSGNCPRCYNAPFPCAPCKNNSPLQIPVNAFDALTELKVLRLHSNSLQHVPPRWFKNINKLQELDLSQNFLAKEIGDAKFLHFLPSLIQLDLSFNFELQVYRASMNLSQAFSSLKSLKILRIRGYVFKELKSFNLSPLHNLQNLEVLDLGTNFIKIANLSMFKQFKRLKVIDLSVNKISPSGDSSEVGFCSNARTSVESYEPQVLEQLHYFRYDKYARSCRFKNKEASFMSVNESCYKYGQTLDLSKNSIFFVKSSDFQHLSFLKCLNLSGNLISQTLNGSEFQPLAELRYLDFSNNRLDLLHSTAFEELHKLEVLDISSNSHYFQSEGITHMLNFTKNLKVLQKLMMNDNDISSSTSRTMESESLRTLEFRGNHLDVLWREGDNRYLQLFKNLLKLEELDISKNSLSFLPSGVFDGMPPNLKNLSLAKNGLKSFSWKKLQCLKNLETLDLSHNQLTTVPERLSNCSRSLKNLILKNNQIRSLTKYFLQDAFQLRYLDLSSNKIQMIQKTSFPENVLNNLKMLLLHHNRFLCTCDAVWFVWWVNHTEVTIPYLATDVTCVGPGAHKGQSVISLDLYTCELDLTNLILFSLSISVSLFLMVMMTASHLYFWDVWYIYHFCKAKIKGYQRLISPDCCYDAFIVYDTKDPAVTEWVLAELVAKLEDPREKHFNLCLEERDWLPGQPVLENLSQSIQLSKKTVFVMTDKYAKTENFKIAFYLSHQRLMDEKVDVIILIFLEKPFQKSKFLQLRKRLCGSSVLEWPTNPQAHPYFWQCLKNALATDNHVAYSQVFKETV
The experiment can be described thus: TLR7 inhibition reporter assay (HEK-Blue SEAP reporter). As to conditions: HEK-Blue cells overexpressing human TLR7; gardiquimod 7.5 μM; 22 hour incubation. The essentials: (§1)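 Human TLR7/8/9 HEK-Blue reporter lines; dose range 0.05 nM–50 μM; 30 min RT preincubation; stimulus gardiquimod 7.5 μM / R848 15.9 μM / ODN2006 5 nM respectively; 22 h, 37 °C; SEAP detected colorimetrically.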

The target of experiment [2] is T2, human TLR8 (Homo sapiens, UniProt Q9NR97).
T2 construct: host or cells: HEK-Blue cells
T2 sequence (Q9NR97 27-1041): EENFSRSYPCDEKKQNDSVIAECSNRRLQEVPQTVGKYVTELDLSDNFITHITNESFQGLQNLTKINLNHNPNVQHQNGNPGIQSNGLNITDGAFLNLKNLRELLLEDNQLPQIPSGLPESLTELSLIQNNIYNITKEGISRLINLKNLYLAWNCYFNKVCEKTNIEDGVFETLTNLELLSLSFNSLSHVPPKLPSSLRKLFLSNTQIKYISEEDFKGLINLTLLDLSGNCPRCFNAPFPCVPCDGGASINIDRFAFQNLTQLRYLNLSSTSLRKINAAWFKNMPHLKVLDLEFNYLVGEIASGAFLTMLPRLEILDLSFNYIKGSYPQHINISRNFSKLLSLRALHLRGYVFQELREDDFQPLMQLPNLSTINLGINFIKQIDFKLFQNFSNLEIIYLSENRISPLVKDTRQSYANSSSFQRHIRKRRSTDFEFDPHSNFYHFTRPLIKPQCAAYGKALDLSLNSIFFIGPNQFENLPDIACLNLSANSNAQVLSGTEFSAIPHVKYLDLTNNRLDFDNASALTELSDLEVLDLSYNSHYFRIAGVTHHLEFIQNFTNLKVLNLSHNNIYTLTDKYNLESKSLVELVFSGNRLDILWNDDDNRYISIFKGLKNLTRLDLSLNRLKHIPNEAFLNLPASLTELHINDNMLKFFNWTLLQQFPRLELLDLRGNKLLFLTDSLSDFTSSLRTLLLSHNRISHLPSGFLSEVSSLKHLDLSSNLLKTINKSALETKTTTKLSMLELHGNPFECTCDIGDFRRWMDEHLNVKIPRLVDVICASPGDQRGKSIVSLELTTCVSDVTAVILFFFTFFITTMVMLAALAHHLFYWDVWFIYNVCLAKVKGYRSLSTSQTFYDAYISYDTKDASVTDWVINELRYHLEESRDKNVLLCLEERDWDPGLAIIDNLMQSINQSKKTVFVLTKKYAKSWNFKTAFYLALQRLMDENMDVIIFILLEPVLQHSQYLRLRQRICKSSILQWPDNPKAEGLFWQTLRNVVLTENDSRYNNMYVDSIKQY
The experiment can be described thus: TLR8 inhibition reporter assay (HEK-Blue SEAP reporter). The settings on record: HEK-Blue cells overexpressing human TLR8; R848 15.9 μM; 22 hour incubation. How it is done: TLR7/8/9 Inhibition Reporter Assays
HEK-Blue™-cells (Invivogen) overexpressing human TLR7, TLR8 or TLR9 receptors were used for screening inhibitors of these receptors using an inducible SEAP (secreted embryonic alkaline phosphatase) reporter gene under the control of the IFN-β minimal promoter fused to five NF-κB and AP-1-binding sites. Briefly, cells are seeded into Greiner 384 well plates (15000 cells per well for TLR7, 20,000 for TLR8 and 25,000 for TLR9) and then treated with test compounds in DMSO to yield a final dose response concentration range of 0.05 nM-50 μM. After a 30 minute compound pre-treatment at room temperature, the cells are then stimulated with a TLR7 ligand (gardiquimod at a final concentration of 7.5 μM), TLR8 ligand (R848 at a final concentration of 15.9 μM) or TLR9 ligand (ODN2006 at a final concentration of 5 nM) to activate NF-κB and AP-1 which induce the production of SEAP. After a 22 hour incubation at 37° C., 5% CO2, SEAP levels are determined with the addition of HEK-Blue™ Detection reagent (Invivogen), a cell culture medium that allows for detection of SEAP, according to manufacturer's specifications. The percent inhibition is determined as the % reduction in the HEK-Blue signal present in wells treated with agonist plus DMSO alone compared to wells treated with a known inhibitor.

For experiment [3], the target named is T3, human TLR9 (Homo sapiens, UniProt Q9NR96).
T3 construct: host or cells: HEK-Blue cells
T3 sequence (Q9NR96 26-1032): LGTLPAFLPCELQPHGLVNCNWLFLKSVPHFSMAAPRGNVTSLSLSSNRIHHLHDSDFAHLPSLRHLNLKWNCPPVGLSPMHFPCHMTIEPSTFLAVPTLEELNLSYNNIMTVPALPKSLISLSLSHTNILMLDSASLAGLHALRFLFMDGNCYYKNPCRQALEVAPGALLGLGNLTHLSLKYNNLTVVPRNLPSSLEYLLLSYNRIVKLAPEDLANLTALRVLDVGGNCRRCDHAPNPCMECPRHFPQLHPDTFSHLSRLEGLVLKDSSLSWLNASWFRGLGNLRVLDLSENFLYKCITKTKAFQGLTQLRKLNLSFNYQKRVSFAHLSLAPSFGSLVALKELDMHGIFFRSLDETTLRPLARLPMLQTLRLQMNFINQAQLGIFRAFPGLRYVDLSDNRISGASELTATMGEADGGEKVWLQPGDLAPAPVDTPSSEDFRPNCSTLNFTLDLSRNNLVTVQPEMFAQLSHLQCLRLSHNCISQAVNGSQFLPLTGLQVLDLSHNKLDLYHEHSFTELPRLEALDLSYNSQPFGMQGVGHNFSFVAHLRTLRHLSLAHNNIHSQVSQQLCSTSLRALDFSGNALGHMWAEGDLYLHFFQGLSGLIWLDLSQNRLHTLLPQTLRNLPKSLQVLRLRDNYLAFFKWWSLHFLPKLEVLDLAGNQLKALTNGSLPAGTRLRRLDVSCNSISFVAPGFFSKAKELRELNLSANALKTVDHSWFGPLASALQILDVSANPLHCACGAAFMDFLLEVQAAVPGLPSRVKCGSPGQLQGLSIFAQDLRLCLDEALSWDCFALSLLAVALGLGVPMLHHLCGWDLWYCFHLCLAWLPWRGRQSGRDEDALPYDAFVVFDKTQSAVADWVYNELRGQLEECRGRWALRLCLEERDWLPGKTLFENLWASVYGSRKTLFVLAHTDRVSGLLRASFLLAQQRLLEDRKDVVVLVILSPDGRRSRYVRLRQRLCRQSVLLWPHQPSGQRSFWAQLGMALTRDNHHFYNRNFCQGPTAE
The experiment can be described thus: TLR9 inhibition reporter assay (HEK-Blue SEAP reporter). As to conditions: HEK-Blue cells overexpressing human TLR9; ODN2006 5 nM; 22 hour incubation. The method, boiled down: as §1

For the molecule `COc1ccc(-c2[nH]c3ccc(N4CCC(NC5CC(C)(C)N(C)C(C)(C)C5)CC4)cc3c2C(C)C)cc1OC` [Example 95, N-(1-(2-(3,4-dimethoxyphenyl)-3-isopropyl-1H-indol-5-yl)piperidin-4-yl)-1,2,2,6,6-pentamethylpiperidin-4-amine], the figures for the 50% inhibitory concentration (IC50) in experiment [1], in experiment [2] and in experiment [3] were 39 nM, 7.8 nM and 533 nM, respectively.

`COc1ccc(-c2[nH]c3ccc(NC4CCC(NC5CCN(C)CC5)CC4)cc3c2C(C)C)cc1OC` (single isomer, unassigned) [Example 40, N1-(2-(3,4-dimethoxyphenyl)-3-isopropyl-1H-indol-5-yl)-N4-(1-methylpiperidin-4-yl)cyclohexane-1,4-diamine]: the IC50 came out at 43 nM in experiment [1], 171 nM in experiment [2] and 570 nM in experiment [3].

For `CCNCCOc1ccc(Nc2ccc3[nH]c(-c4ccc(OC)c(OC)c4)c(C(C)C)c3c2)cc1` [Example 105, 2-(3,4-dimethoxyphenyl)-N-(4-(2-(ethylamino)ethoxy)phenyl)-3-isopropyl-1H-indol-5-amine], the IC50 in experiment [1] was 1400 nM; in experiment [2], 17 nM; in experiment [3], 2260 nM.

As to `CNCCNC1CCN(c2ccc3[nH]c(-c4ccc(OC)c(OC)c4)c(C(C)C)c3c2)CC1` [Example 72, N1-(1-(2-(3,4-dimethoxyphenyl)-3-isopropyl-1H-indol-5-yl)piperidin-4-yl)-N2-methylethane-1,2-diamine], the IC50 stood at 15 nM in experiment [1], 2.8 nM in experiment [2] and 1390 nM in experiment [3].

`Cc1cc2[nH]c(-c3ccnc4[nH]ncc34)c(C(C)C)c2cc1N1CCN(C2CCN(C(C)C)CC2)CC1` [Example 175, 4-(3-isopropyl-5-(4-(1-isopropylpiperidin-4-yl)piperazin-1-yl)-6-methyl-1H-indol-2-yl)-1H-pyrazolo[3,4-b]pyridine]: the IC50 in experiment [1] was found to be 7.5 nM; in experiment [2], 11 nM; in experiment [3], 261 nM.

As for `COc1ccc(-c2[nH]c3ccc(N4CCC(C5CCN(Cc6cccn6C)CC5)CC4)cc3c2C(C)C)cc1OC` [Example 96, 2-(3,4-dimethoxyphenyl)-3-isopropyl-5-(1′-((1-methyl-1H-pyrrol-2-yl)methyl)-[4,4′-bipiperidin]-1-yl)-1H-indole], the figures for the IC50 in experiment [1], in experiment [2] and in experiment [3] were 436 nM, 1050 nM and 2840 nM, respectively.

Regarding `CC(C)c1c(-c2ccnc3[nH]ncc23)[nH]c2ccc(NC(=O)[C@@H]3CCNC3)cc12` [Example 9, (R)—N-(3-isopropyl-2-(1H-pyrazolo[3,4-b]pyridin-4-yl)-1H-indol-5-yl)pyrrolidine-3-carboxamide], the IC50 was 817 nM in experiment [1], 70 nM in experiment [2] and 5660 nM in experiment [3].

`COc1ccc(-c2[nH]c3ccc(N4CC5(CCCNC5)C4)cc3c2C(C)C)cc1OC` [Example 136, 2-(2-(3,4-dimethoxyphenyl)-3-isopropyl-H-indol-5-yl)-2,6-diazaspiro[3.5]nonane]: the IC50 in experiment [1] was 542 nM; in experiment [2], 35 nM; in experiment [3], 2650 nM.

For the molecule `COc1ccc(-c2[nH]c3ccc(N4CCN(C5CC(C)(C)NC(C)(C)C5)CC4)cc3c2C(C)C)cc1OC` [Example 68, 2-(3,4-dimethoxyphenyl)-3-isopropyl-5-(4-(2,2,6,6-tetramethyl-112-piperidin-4-yl)piperazin-1-yl)-1H-indole], the values for the IC50 in experiment [1], in experiment [2] and in experiment [3] were 34 nM, 11 nM and 676 nM, respectively.

Regarding `COc1ccc(-c2[nH]c3ccc(N4CCC(N5CCN(C6CCN(C)CC6)CC5)CC4)cc3c2C(C)C)cc1OC` [Example 99, 2-(3,4-dimethoxyphenyl)-3-isopropyl-5-(4-(4-(1-methylpiperidin-4-yl)piperazin-1-yl)piperidin-1-yl)-1H-indole], the figures for the IC50 in experiment [1], in experiment [2] and in experiment [3] were 11 nM, 62 nM and 538 nM, respectively.

Values taken from patent publication US11306092B2, “Amino indole compounds useful as TLR inhibitors” (BRISTOL-MYERS SQUIBB COMPANY, priority 2017, dated 2022).
